Experimental data from patent publication US9113629B2, “4-amino-6-(4-substituted-phenyl)-picolinates and 6-amino-2-(4-substituted-phenyl)-pyrimidine-4-carboxylates and their use as herbicides” (DOW AGROSCIENCES LLC, priority 2013, dated 2015).
Where two headings read alike, the source gives them in different places.

Assays:
[1] = system: Key Broadleaf Weed and Crop Species; assay: Post-emergent Test II herbicidal activity (Table 5); assay type: in vivo; conditions: post-emergence, 336 h, post-emergent, 14 days after application; for pest or weed control at 70 g/ha: 70 g ai/ha; for pest or weed control at 140 g/ha: 140 g ai/ha
Outline: (§1)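 Foliar application at 187 L/ha to greenhouse-grown seedlings (first or second true leaf); subirrigation thereafter. Visual 0–100% injury at 14 d relative to untreated plants.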

[2] = system: Key Grass and Sedge Weeds as well as Grass Crops; assay: Post-emergent Test II herbicidal activity (Table 6); assay type: in vivo; conditions: post-emergence, 336 h; for pest or weed control at 70 g/ha: application rate 70 g ai/ha; for pest or weed control at 140 g/ha: application rate 140 g ai/ha
Outline: as §1

[3] = ABUTH: velvetleaf (Abutilon theophrasti), read-out: Visual Growth Reduction (%) 14 Days After Application ABUTH
[4] = AMARE: redroot pigweed (Amaranthus retroflexus), read-out: Visual Growth Reduction (%) 14 Days After Application AMARE
[5] = BRSNN: oilseed-rape, canola (Brassica napus), read-out: Visual Growth Reduction (%) 14 Days After Application BRSNN
[6] = CHEAL: lambsquarters (Chenopodium album), read-out: Visual Growth Reduction (%) 14 Days After Application CHEAL
[7] = EPHHL: wild poinsettia (Euphorbia heterophylla), read-out: Visual Growth Reduction (%) 14 Days After Application EPHHL
[8] = HELAN: sunflower (Helianthus annuus), read-out: Visual Growth Reduction (%) 14 Days After Application HELAN
[9] = VIOTR: wild pansy (Viola tricolor), read-out: Visual Growth Reduction (%) 14 Days After Application VIOTR
[10] = CYPES: yellow nutsedge (Cyperus esculentus), read-out: Visual Growth Reduction (%) 14 Days After Application, CYPES
[11] = DIGSA: crabgrass (Digitaria sanguinalis), read-out: Visual Growth Reduction (%) 14 Days After Application, DIGSA
[12] = ECHCG: barnyardgrass (Echinochloa crus-galli), read-out: Visual Growth Reduction (%) 14 Days After Application, ECHCG
[13] = ORYSA: rice (Oryza sativa), read-out: Visual Growth Reduction (%) 14 Days After Application, ORYSA
[14] = SETFA: giant foxtail (Setaria faberi), read-out: Visual Growth Reduction (%) 14 Days After Application, SETFA
[15] = SORVU: grain sorghum (Sorghum vulgare), read-out: Visual Growth Reduction (%) 14 Days After Application, SORVU
[16] = TRZSS (wheat, Triticum aestivum), read-out: Visual Growth Reduction (%) 14 Days After Application, TRZSS
[17] = ZEAMX: maize, corn (Zea mays), read-out: Visual Growth Reduction (%) 14 Days After Application, ZEAMX

COC(=O)c1nc(-c2cc(F)c(C(F)(F)F)cc2F)cc(N)c1Cl [Compound 70, methyl 4-amino-3-chloro-6-(2,5-difluoro-4-(trifluoromethyl)phenyl)picolinate]
30 to 44%: pest or weed control at 70 g/ha [2, 14]
75 to 84%: pest or weed control at 70 g/ha [1, 5] | pest or weed control at 140 g/ha [1, 9] | pest or weed control at 70 g/ha [2, 16]
60 to 74%: pest or weed control at 70 g/ha [1, 9] | pest or weed control at 140 g/ha [2, 14]
95 to 100%: pest or weed control at 70 g/ha [1, 3] | pest or weed control at 140 g/ha [1, 3] | pest or weed control at 70 g/ha [1, 4] | pest or weed control at 140 g/ha [1, 4] | pest or weed control at 70 g/ha [1, 6] | pest or weed control at 140 g/ha [1, 6] | pest or weed control at 70 g/ha [1, 7] | pest or weed control at 140 g/ha [1, 7] | pest or weed control at 140 g/ha [1, 8] | pest or weed control at 70 g/ha [2, 10] | pest or weed control at 140 g/ha [2, 10] | pest or weed control at 140 g/ha [2, 11] | pest or weed control at 140 g/ha [2, 12] | pest or weed control at 140 g/ha [2, 15] | pest or weed control at 70 g/ha [2, 17] | pest or weed control at 140 g/ha [2, 17]
85 to 94%: pest or weed control at 140 g/ha [1, 5] | pest or weed control at 70 g/ha [1, 8] | pest or weed control at 70 g/ha [2, 11] | pest or weed control at 70 g/ha [2, 12] | pest or weed control at 70 g/ha [2, 15] | pest or weed control at 140 g/ha [2, 16]
0 to 29%: pest or weed control at 70 g/ha [2, 13] | pest or weed control at 140 g/ha [2, 13]
